# Assay results published in patent US10800791B2, “Triazole ACC inhibitors and uses thereof” (Gilead Apollo, LLC, priority 2015, dated 2020).
# Where two headings read alike, the source gives them in different places.
# Assays:
# [1] = test system: Diplodia maydis (Dm); assay: Growth inhibition assay of fungal pathogens, Dm; format: cell-based; details: Stenocarpella maydis, 48 h
# In short: (§1)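 Read-out: OD600 plus visual rating at 24 and 48 h, blank (media + 2% DMSO) subtracted. Percent inhibition was derived at 48 h versus the 2% DMSO control. Spores were grown in 17% V8 broth with compound at 50/10/2 or 2/0.4/0.08 ppm final.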
# [2] = test system: Botrtyis cinerea (Bc); assay: Growth inhibition assay of fungal pathogens, Bc; format: cell-based; details: 48 h
# In short: as §1
# [3] = test system: C. albicans; assay: Antifungal Activity Assay (broth microtiter MIC), C. albicans; format: cell-based, Candida albicans; details: Candida albicans, ATCC90028, 48 h
# In short: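 Susceptibility was determined by CLSI M27-A3 broth microdilution in RPMI 1640 buffered with MOPS. Growth inhibition was scored visually after 48 h.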
# [4] = Diplodia maydis, growth inhibition at 48 hours vs 2% DMSO control, read-out: Concentration at 90% Inhibition Dm
# [5] = Diplodia maydis, growth inhibition vs 2% DMSO control at 48 hours, read-out: Concentration at 90% Inhibition Dm
# [6] = Botrtyis cinerea, growth inhibition at 48 hours vs 2% DMSO control, read-out: Concentration at 90% Inhibition Bc
# [7] = Botrtyis cinerea, growth inhibition vs 2% DMSO control at 48 hours, read-out: Concentration at 90% Inhibition Bc
# [8] = Table 3a, ATCC 90028, 3 replicates, MIC recorded at 48 h, read-out: MIC, C. albicans ATCC 90028
# [9] = Table 3b (additional results), ATCC 90028, 3 replicates, MIC recorded at 48 h, read-out: MIC, C. albicans ATCC 90028
# [10] = read-out: Concentration at 90% Inhibition Dm, Diplodia maydis, growth inhibition at 48 hours vs 2% DMSO control
# [11] = read-out: Concentration at 90% Inhibition Dm, Diplodia maydis, growth inhibition vs 2% DMSO control at 48 hours
# [12] = read-out: Concentration at 90% Inhibition Bc, Botrtyis cinerea, growth inhibition at 48 hours vs 2% DMSO control
# [13] = read-out: Concentration at 90% Inhibition Bc, Botrtyis cinerea, growth inhibition vs 2% DMSO control at 48 hours
# [14] = read-out: MIC, C. albicans ATCC 90028, Table 3a, 3 replicates, MIC recorded at 48 h
# [15] = read-out: MIC, C. albicans ATCC 90028, Table 3b (additional results), 3 replicates, MIC recorded at 48 h
SMILES,"IC90 [1, 4]","IC90 [1, 5]","IC90 [2, 6]","IC90 [2, 7]","MIC [3, 8]","MIC [3, 9]","IC90 [1, 10]","IC90 [1, 11]","IC90 [2, 12]","IC90 [2, 13]","MIC [3, 14]","MIC [3, 15]"
"COc1ccc(F)cc1[C@H](Cn1c(=O)n([C@H](C)C(=O)NC2CCC2)c(=O)c2c(C)c(-n3nccn3)sc21)OCCO [Compound I-84, (R)—N-cyclobutyl-2-(1-((R)-2-(5-fluoro-2-methoxyphenyl)-2-(2-hydroxyethoxy)ethyl)-5-methyl-2,4-dioxo-6-(2H-1,2,3-triazol-2-yl)-1,4-dihydrothieno[2,3-d]pyrimidin-3(2H)-yl)propanamide]",0.4 µg/mL,0.4 µg/mL,0.4 µg/mL,0.4 µg/mL,1.1 to 2 µg/mL,2.01 to 4 µg/mL,,,,,,
"COc1ccc(F)cc1[C@H](Cn1c(=O)n(C(C)(C)C(=O)N2CCCCC2)c(=O)c2c(C)c(-n3nccn3)sc21)OC1CCOCC1 [Compound I-24, (R)-1-(2-(5-fluoro-2-methoxyphenyl)-2-((tetrahydro-2H-pyran-4-yl)oxy)ethyl)-5-methyl-3-(2-methyl-1-oxo-1-(piperidin-1-yl)propan-2-yl)-6-(2H-1,2,3-triazol-2-yl)thieno[2,3-d]pyrimidine-2,4(1H,3H)-dione]",,,,,,,0.08 µg/mL,0.08 µg/mL,0.4 µg/mL,0.4 µg/mL,0.25 to 1 µg/mL,0.25 to 1 µg/mL
"COc1ccc(F)cc1[C@H](Cn1c(=O)n(C(C)(C)C(=O)N2CCOCC2)c(=O)c2c(C)c(-n3nccn3)sc21)OC(C)C [Compound I-5, (R)-1-(2-(5-fluoro-2-methoxyphenyl)-2-isopropoxyethyl)-5-methyl-3-(2-methyl-1-morpholino-1-oxopropan-2-yl)-6-(2H-1,2,3-triazol-2-yl)thieno[2,3-d]pyrimidine-2,4(1H,3H)-dione]",,,,,,,2 µg/mL,2 µg/mL,0.4 µg/mL,0.4 µg/mL,2.1 to 4 µg/mL,2.01 to 4 µg/mL
"COc1ccc(F)cc1[C@H](Cn1c(=O)n(C(C)(C)C(=O)NC(C)C)c(=O)c2c(C)c(-n3nccn3)sc21)OCCC#N [Compound I-91, (R)-2-(1-(2-(2-cyanoethoxy)-2-(5-fluoro-2-methoxy-phenyl)ethyl)-5-methyl-2,4-dioxo-6-(2H-1,2,3-triazol-2-yl)-1,4-dihydro-thieno[2,3-d]pyrimidin-3(2H)-yl)-N-isopropyl-2-methylpropanamide]",0.08 µg/mL,0.08 µg/mL,0.4 µg/mL,0.4 µg/mL,0.25 to 1 µg/mL,1.01 to 2 µg/mL,,,,,,
"COCCCO[C@@H](Cn1c(=O)n([C@H](C)C(=O)NC(C)C)c(=O)c2c(C)c(-n3nccn3)sc21)c1cc(F)ccc1OC [Compound I-87, (R)-2-(1-((R)-2-(5-fluoro-2-methoxyphenyl)-2-(3-methoxy-propoxy)ethyl)-5-methyl-2,4-dioxo-6-(2H-1,2,3-triazol-2-yl)-1,4-dihydrothieno[2,3-d]pyrimidin-3(2H)-yl)-N-isopropylpropanamide]",0.4 µg/mL,0.4 µg/mL,0.08 µg/mL,0.08 µg/mL,1.1 to 2 µg/mL,2.01 to 4 µg/mL,,,,,,
"C=CCO[C@@H](Cn1c(=O)n(C(C)(C)C(=O)NC(C)C)c(=O)c2c(C)c(-n3nccn3)sc21)c1cc(F)ccc1OC [Compound I-72, (R)-2-(1-(2-(allyloxy)-2-(5-fluoro-2-methoxyphenyl)ethyl)-5-methyl-2,4-dioxo-6-(2H-1,2,3-triazol-2-yl)-1,4-dihydrothieno[2,3-d]pyrimidin-3(2H)-yl)-N-isopropyl-2-methylpropanamide]",,,,,,,2 µg/mL,2 µg/mL,2 µg/mL,2 µg/mL,2.1 to 4 µg/mL,1.01 to 2 µg/mL
"COc1ccc(F)cc1[C@H](Cn1c(=O)n(C(C)(C)C(=O)N2CCCC2)c(=O)c2c(C)c(-n3nccn3)sc21)OCCO [Compound I-44, (R)-1-(2-(5-fluoro-2-methoxyphenyl)-2-(2-hydroxyethoxy)ethyl)-5-methyl-3-(2-methyl-1-oxo-1-(pyrrolidin-1-yl)propan-2-yl)-6-(2H-1,2,3-triazol-2-yl)thieno[2,3-d]pyrimidine-2,4(1H,3H)-dione]",2 µg/mL,10 µg/mL,2 µg/mL,2 µg/mL,2.1 to 4 µg/mL,1.01 to 2 µg/mL,,,,,,
"COc1ccc(F)cc1[C@H](Cn1c(=O)n([C@@H](C)C(=O)NC(C)C)c(=O)c2c(C)c(-n3nccn3)sc21)OCCO [Compound I-88, (S)-2-(1-((R)-2-(5-fluoro-2-methoxyphenyl)-2-(2-hydroxyethoxy)ethyl)-5-methyl-2,4-dioxo-6-(2H-1,2,3-triazol-2-yl)-1,4-dihydro-thieno[2,3-d]pyrimidin-3(2H)-yl)-N-isopropylpropanamide]",,,,,,,0.4 µg/mL,0.4 µg/mL,2 µg/mL,2 µg/mL,1.1 to 2 µg/mL,2.01 to 4 µg/mL
"Cc1c(-n2nccn2)sc2c1c(=O)n(C(C)(C)C(=O)NC(C)C)c(=O)n2C[C@H](OC(C)C)c1cc(F)ccc1OCC1COC1 [Compound I-55, (R)-2-(1-(2-(5-fluoro-2-(oxetan-3-ylmethoxy)phenyl)-2-isopropoxyethyl)-5-methyl-2,4-dioxo-6-(2H-1,2,3-triazol-2-yl)-1,4-dihydrothieno[2,3-d]pyrimidin-3(2H)-yl)-N-isopropyl-2-methylpropanamide]",0.4 µg/mL,0.4 µg/mL,0.4 µg/mL,0.4 µg/mL,0.25 to 1 µg/mL,1.01 to 2 µg/mL,,,,,,
"COc1ccccc1[C@H](Cn1c(=O)n(C(C)(C)C(=O)N2CC(O)C2)c(=O)c2c(C)c(-n3nccn3)sc21)OC1CCOCC1 [Compound I-19, (R)-3-(1-(3-hydroxyazetidin-1-yl)-2-methyl-1-oxopropan-2-yl)-1-(2-(2-methoxyphenyl)-2-((tetrahydro-2H-pyran-4-yl)oxy)ethyl)-5-methyl-6-(2H-1,2,3-triazol-2-yl)thieno[2,3-d]pyrimidine-2,4(1H,3H)-dione]",,,,,,,> 50 µg/mL,> 50 µg/mL,10 µg/mL,> 50 µg/mL,2.1 to 4 µg/mL,1.01 to 2 µg/mL
"CCNC(=O)C(C)(C)n1c(=O)c2c(C)c(-n3nccn3)sc2n(C[C@H](OC(C)C)c2cc(F)ccc2OC)c1=O [Compound I-3, (R)—N-ethyl-2-(1-(2-(5-fluoro-2-methoxyphenyl)-2-isopropoxyethyl)-5-methyl-2,4-dioxo-6-(2H-1,2,3-triazol-2-yl)-1,4-dihydrothieno[2,3-d]pyrimidin-3(2H)-yl)-2-methylpropanamide]",,,,,,,0.4 µg/mL,0.4 µg/mL,0.4 µg/mL,0.4 µg/mL,1.1 to 2 µg/mL,1.01 to 2 µg/mL
"CCNC(=O)C(C)(C)n1c(=O)c2c(C)c(-n3nccn3)sc2n(C[C@H](OC2CCOCC2)c2ccccc2OC)c1=O [Compound I-15, (R)—N-ethyl-2-(1-(2-(2-methoxyphenyl)-2-((tetrahydro-2H-pyran-4-yl)oxy)ethyl)-5-methyl-2,4-dioxo-6-(2H-1,2,3-triazol-2-yl)-1,4-dihydro-thieno[2,3-d]pyrimidin-3(2H)-yl)-2-methylpropanamide]",10 µg/mL,> 50 µg/mL,0.4 µg/mL,0.4 µg/mL,0.25 to 1 µg/mL,0.25 to 1 µg/mL,,,,,,
"COCCO[C@@H](Cn1c(=O)n(CC(=O)NC(C)C)c(=O)c2c(C)c(-n3nccn3)sc21)c1cc(F)ccc1OC [Compound I-80, (R)-2-(1-(2-(5-fluoro-2-methoxyphenyl)-2-(2-methoxy-ethoxy)ethyl)-5-methyl-2,4-dioxo-6-(2H-1,2,3-triazol-2-yl)-1,4-dihydro-thieno[2,3-d]pyrimidin-3(2H)-yl)-N-isopropylacetamide]",,,,,,,> 50 µg/mL,> 50 µg/mL,> 50 µg/mL,> 50 µg/mL,2.1 to 4 µg/mL,> 4.01 µg/mL
"COc1ccc(F)cc1[C@H](Cn1c(=O)n(C(C)(C)C(=O)N2CCCC2)c(=O)c2c(C)c(-n3nccn3)sc21)OCC(C)C [Compound I-12, (R)-1-(2-(5-fluoro-2-methoxyphenyl)-2-isobutoxyethyl)-5-methyl-3-(2-methyl-1-oxo-1-(pyrrolidin-1-yl)propan-2-yl)-6-(2H-1,2,3-triazol-2-yl)thieno[2,3-d]pyrimidine-2,4(1H,3H)-dione]",0.08 µg/mL,0.08 µg/mL,0.4 µg/mL,0.4 µg/mL,1.1 to 2 µg/mL,0.25 to 1 µg/mL,,,,,,
"COc1ccc(F)cc1[C@H](Cn1c(=O)n(CC(=O)NC(C)C)c(=O)c2c(C)c(-n3nccn3)sc21)OC(C)C [Compound I-35, (R)-2-(1-(2-(5-fluoro-2-methoxyphenyl)-2-isopropoxy-ethyl)-5-methyl-2,4-dioxo-6-(2H-1,2,3-triazol-2-yl)-1,4-dihydrothieno[2,3-d]pyrimidin-3(2H)-yl)-N-isopropylacetamide]",,,,,,,0.4 µg/mL,0.4 µg/mL,0.4 µg/mL,0.4 µg/mL,2.1 to 4 µg/mL,2.01 to 4 µg/mL
